A word on the ED50: it is the midpoint of the dose-response relation. The LD50 is the dose at which mortality reaches 50%.

Data set [1] has as its system spasmogenic effect of epinephrine on the isolated guineapig seminal vescicle. The data set can be described thus: adrenergic blockade in vitro: receptor blockade against the spasmogenic effect of epinephrine on the isolated guineapig seminal vescicle. The class given is biochemical. The note with it: concentration producing 50% inhibition of the effect of epinephrine, estimated graphically. The method, then: (a) receptors blockade was determined against the spasmogenic effect of
epinephrine on the isolated guineapig seminal vescicle according to
Brugger J. (Helv.Physiol. Acta 3, 117, 1945). Concentration producing 50%
inhibition of the effect of the agonist were estimated graphically for […]

Data set [2] relates to lethal effect of 0.2 mg/Kg epinephrine. The experiment in a line: adrenergic blockade in vivo: receptor blockade in rats, protection from the lethal effect of epinephrine. The note with it: Rattus norvegicus, iv, 5 min, dose protecting 50% of animals from the lethal effect of 0.2 mg/Kg epinephrine injected i.v. 5 min later, estimated graphically. The method, then:
(b) receptor blockade was determined in rats according to Luduena F.P. et
al. (Arch. Int. Pharmacodyn CXXII, 111, 1959). ED50 is the
graphically estimated dose of antagonist protecting 50% of animals from
the lethal effect of 0.2 mg/Kg epinephrine, injected i.v. 5 min later.

Data set [3] in a line: acute toxicity (LD50) in mice. The note with it: mouse, in vivo, iv, standard procedure. How it is done:
(c) LD50 was determined in mice according to the standard procedure.

As to `CC(C)[C@@]1(NC(=O)[C@@H]2C[C@@H]3c4cccc5[nH]cc(c45)C[C@H]3N(C)C2)O[C@@]2(O)[C@@H]3CCCN3C(=O)[C@H](Cc3ccc(Cl)cc3)N2C1=O` [5'-debenzyl-5'-p-chlorobenzyl dihydroergocristine], the “adrenergic blockade In vitro IC50” value in data set [1] was 0.03 µg/mL. Moreover, in data set [2], the ED50 was 0.02 mg/kg. Also, the LD50 in data set [3] was 190 mg/kg.
In the same order, the values of `CN1C[C@H](C(=O)N[C@]2(C)O[C@@]3(O)[C@@H]4CCCN4C(=O)[C@H](Cc4ccc(Cl)cc4)N3C2=O)C[C@@H]2c3cccc4[nH]cc(c34)C[C@H]21` [5'-debenzyl-5'-p-chlorobenzyl dihydroergotamine] are 0.02 µg/mL, 0.05 mg/kg and 150 mg/kg.
As to `CN1C[C@H](C(=O)N[C@]2(C)O[C@@]3(O)[C@@H]4CCCN4C(=O)[C@H](Cc4ccc(Cl)cc4)N3C2=O)C=C2c3cccc4[nH]cc(c34)C[C@H]21` [5'-debenzyl-5'-p-chlorobenzyl ergotamine], in data set [1], the “adrenergic blockade In vitro IC50” value was 0.03 µg/mL. Moreover, the ED50 in data set [2] is 0.1 mg/kg. The same compound returned a median lethal dose (LD50) in data set [3] of 100 mg/kg.
For the compound `CC(C)[C@@]1(NC(=O)[C@@H]2C[C@@H]3c4cccc5[nH]cc(c45)C[C@H]3N(C)C2)O[C@@]2(O)[C@@H]3CCCN3C(=O)[C@H](Cc3ccccc3)N2C1=O` [Dihydroergocristine, reference compound], the ED50 in data set [2] is 0.03 mg/kg. Besides, the LD50 in data set [3] was found to be 174 mg/kg.
Regarding `CN1C[C@H](C(=O)N[C@]2(C)O[C@@]3(O)[C@@H]4CCCN4C(=O)[C@H](Cc4ccccc4)N3C2=O)C[C@@H]2c3cccc4[nH]cc(c34)C[C@H]21` [Dihydroergotamine, reference compound], the “adrenergic blockade In vitro IC50” value in data set [1] is 0.02 µg/mL. Moreover, the ED50 in data set [2] is 0.08 mg/kg. Moreover, the LD50 in data set [3] was found to be 118 mg/kg.
On the same counts, the results for `CN1C[C@H](C(=O)N[C@]2(C)O[C@@]3(O)[C@@H]4CCCN4C(=O)[C@H](Cc4ccccc4)N3C2=O)C=C2c3cccc4[nH]cc(c34)C[C@H]21` [Ergotamine, reference compound] are 0.07 µg/mL, 0.2 mg/kg and 70 mg/kg.

The record behind these values is patent publication US4230854A, “Analogues of ergot alkaloids” (Societa Farmaceutici Italia S.p.A., priority 1977, dated 1980).
